Data set [1] can be described thus: In vivo pharmacokinetics in rats (IV and PO). On the set-up: species or system male Sprague Dawley rats. The settings on record: male Sprague Dawley rats, 1 mg/kg (IV). The protocol: The pharmacokinetics of compounds were studied in vivo in male Sprague Dawley rats at doses of 1 mg/kg (IV) and 10 mg/kg (PO).
Sprague Dawley rats were treated with experimental compounds via intravenous and oral administration. Three animals for each route of administration were used with serial blood sampling at ten time points post dosing of compound.
Animals were weighed and used if between 200-250 g. Serial blood samples were collected at 0.02, 0.08, 0.25, 0.50, 1, 2, 4, 6, 8 and 24 hours post dosing. […] Blood samples were delivered into an anticoagulant (sodium heparin) and centrifuged at 4° C. Plasma samples were subsequently stored frozen at less than −20° C. prior to analysis.
Following protein precipitation with acetonitrile, samples were analysed with tandem liquid chromatography/mass spectrometry using electrospray ionisation. A full matrix curve with internal standards was employed and PK parameters were calculated.
In a similar manner, oral administration was performed by gavage at doses of 5 or 10 mg/kg at a concentration of 5 mg/ml in 1% Methyl cellulose (Sigma M7140), 0.1% Tween 80 in water. Serial samples were taken as described above.
RV039 was administered at doses of 1 mg/kg (IV) and 5 mg/kg (PO).

Another data set concerns RSV A2 (PRNT1). As to the kind of experiment: RSV plaque reduction assay, A2 (PRNT1), Vero cells. The note with it: n = 4. It is filed as cell-based, respiratory syncytial virus. The protocol: Plaque Reduction Assay: […] After an overnight incubation at 37° C. in a humidified 5% CO2 atmosphere, the monolayer of cells should be approximately 90% confluent. Antiviral compounds were titrated in pre-warmed Serum Free (SF) Optimem in a U-bottom 96 well plate. […] Media was then removed from cells and replaced with PBS (100 μl/well). RSV stock was thawed and diluted in SF Optimem media to 4000 PFU/mLl. An equal volume of virus was added to compounds on the titration plate. PBS was removed from cells which were then inoculated with the virus/compound solution (50 μL/well). Cells were incubated for 2 h in a 37° C.+5% CO2 humidified incubator to allow infection. […] Immunostaining Procedure: Media was removed from cells and the monolayer washed with PBS. Cells were fixed with ice cold 80% Acetone in PBS (100 μl/well) for 20 mins at −20° C. […] Blocking solution was removed and plates washed once with PBS-T. Primary antibody in blocking solution was added to plates (50 μl/well) and incubated for 1 h at 37° C. Plates were then washed 3 times with PBS-T. Secondary antibody in blocking solution was added to plates (50 μL/well) and incubated for 1 h at 37° C. in the dark. […] Plates were scanned on the Odyssey Imager (Li-Cor Biosciences) at a resolution of […], medium quality and level 5 intensity in the […]. Data Analysis: Images obtained were saved and plaque numbers counted with the aid of computer imaging software. EC50 values for compounds were derived from dose response curves [three variable log (inhibitor) vs response] obtained using Graphpad Prism software.

A short description of data set [2]: Liver microsomal stability, human. The format is in vitro ADME. The settings on record: both sexes, pooled liver microsomes, pH 7.4, 3 μM compound, read-out: Liver Microsomal Stability T1/2, human. The method, then: (§1) Microsomal Incubation: Experimental Procedure
(§2) Pooled human liver microsomes (pooled male and female), pooled rat liver microsomes (male Sprague Dawley rats) and pooled dog liver microsomes (male Beagle dog) are purchased from a reputable commercial supplier and stored at −80° C. prior to use.
(§3) Microsomes (final protein concentration 0.5 mg/mL), 0.1 M phosphate buffer pH 7.4 and test compound (final substrate concentration 3 μM; final DMSO concentration 0.25%) are pre-incubated at 37° C. prior to the addition of NADPH (final concentration 1 mM) to initiate the reaction. The final incubation volume is 50 μL. A control incubation is included for each compound tested where 0.1 M phosphate buffer pH 7.4 is added instead of NADPH (minus NADPH). Two control compounds are included with each species. All incubations are performed singularly for each test compound.
(§4) Compounds are incubated for 0, 5, 15, 30 and 45 min. The control (minus NADPH) is incubated for 45 min only. The reactions are stopped by transferring 25 μL of incubate to 50 μL methanol at the appropriate time points. The termination plates are centrifuged at 2,500 rpm for 20 min at 4° C. to precipitate the protein. Following protein precipitation, the sample supernatants are combined in cassettes of up to 4 compounds, internal standard is added and samples analysed by LC-MS/MS. From a plot of ln peak area ratio (compound peak area/internal standard peak area) against time, the gradient of the line is determined. Subsequently, half-life and intrinsic clearance are calculated
(Liver microsomes are vesicles of endoplasmic reticulum, rich in cytochrome P450 enzymes.)

Data set [3] is described as follows: Liver microsomal stability, rat. The format is in vitro ADME. The note with it: male, Sprague Dawley, read-out: Liver Microsomal Stability T1/2, rat. The protocol:
as §1, §2
The final incubation volume is 50 μL. A control incubation is included for each compound tested where 0.1 M phosphate buffer pH 7.4 is added instead of NADPH (minus NADPH). Two control compounds are included with each species. All incubations are performed singularly for each test compound.
The reactions are stopped by transferring 25 μL of incubate to 50 μL methanol at the appropriate time points. The termination plates are centrifuged at 2,500 rpm for 20 min at 4° C. to precipitate the protein. Following protein precipitation, the sample supernatants are combined in cassettes of up to 4 compounds, internal standard is added and samples analysed by LC-MS/MS. From a plot of ln peak area ratio (compound peak area/internal standard peak area) against time, the gradient of the line is determined. Subsequently, half-life and intrinsic clearance are calculated

Data set [4] in a line: Liver microsomal stability, dog. The format is in vitro ADME. The note with it: male, Beagle, pooled liver microsomes, pH 7.4, 3 μM compound, read-out: Liver Microsomal Stability T1/2, dog. The method, then: as §1, §2, §3, §4
Where [5] appears, read: human respiratory syncytial virus, Vero.

With `CC(C)CCn1c(CN2C(=O)C3(CC3)c3cccnc32)nc2cc(CN)ccc21` [Example 5, 1′-((5-(aminomethyl)-1-isopentyl-1H-benzo[d]imidazol-2-yl)methyl)[spirocyclopropane-1,3′-pyrrolo[2,3-b]pyridin]-2′(1′H)-one], in data set [1], the Volume of distribution result is listed as “Example 5: 8.2 L/kg”. Besides, the IC50 (commonly the concentration that gives 50% inhibition) with RSV A2 (PRNT1) stood at 5.3 nM.
As to `CC(C)CCn1c(CN2C(=O)C3(CC3)c3ccncc32)nc2cc(CN)ccc21` [Example 6, 1′-((5-(aminomethyl)-1-isopentyl-1H-benzo[d]imidazol-2-yl)methyl)spiro[cyclopropane-1,3′-pyrrolo[2,3-c]pyridin]-2′(1′H)-one], the half-life at 3 μM was 3.82 h in data set [2]; 2.08 h in data set [3] (pooled liver microsomes, pH 7.4, 3 μM compound); 18.3 h in data set [4]. For the same compound, in the data set on RSV A2 (PRNT1) (setting [5]), the half-maximal inhibitory concentration (IC50) came to 2.3 nM.
Consider `NCc1ccc2c(c1)nc(CN1C(=O)C3(CC3)c3ccc(F)cc31)n2C1CCOCC1` [Example 7, 1′-((5-(aminomethyl)-1-(tetrahydro-2H-pyran-4-yl)-1H-benzo[d]imidazol-2-yl)methyl)-6′-fluorospiro[cyclopropane-1,3′-indolin]-2′-one], for which the half-life at 3 μM in data set [2] was determined as 0.557 h; in data set [3] (pH 7.4, rat liver microsomes, 3 μM compound) it was 4.1 h; in data set [4], 55.8 h. In the data set with RSV A2 (PRNT1) (setting [5]), the concentration for half-maximal inhibition (IC50) was 1.6 nM.
In the data set on RSV A2 (PRNT1), `NCc1ccc2c(c1)nc(CN1C(=O)C3(CC3)c3ccc(F)cc31)n2C1CCC(O)CC1` [Example 8, 1′-((5-(Aminomethyl)-1-((1R,4R)-4-hydroxycyclohexyl)-1H-benzo[d]imidazol-2-yl)methyl)-6′-fluorospiro[cyclopropane-1,3′-indolin]-2′-one] yielded an IC50 of 4.8 nM.

Source of the values: patent publication US10106539B2, “Spiro-indolines for the treatment and prophylaxis of respiratory syncytial virus infection (RSV)” (REVIRAL LIMITED, priority 2014, dated 2018).
